Measurements: US20260034123A1 (Cedilla Therapeutics, Inc., priority 2022, published 2026)

Legend:
Kuramochi cells RB-KO = assay: IncuCyte Kuramochi cell proliferation assay, RB-KO; format: cell-based; settings: 72 hours, cell count, batch mean
Method: (§1) IncuCyte® assay was used to measure the effect of disclosed compounds on cell proliferation. Fluorescent microscopy images of cells were taken immediately after compound treatment and 72 hours later. Image analysis software was used to obtain cell counts as a function of compound concentration. Kuramochi cells labeled with mApple-H2B were seeded on 384-well assay-ready plates. Plates were placed in an IncuCyte® (Sartorius) and scanned at 0 and 72 hours. IncuCyte® software was used to count the number of fluorescent nuclei in each well. The fold change in cell count from 0 to 72 hours in wells treated with increasing compounds concentrations (10 pts, 1/2 log dilution, 20 µM top concentration) was normalized to DMSO control wells. The normalized cell counts were fit with dose response curves and a GI50 was calculated.

Kuramochi cells RB-WT = assay: IncuCyte Kuramochi cell proliferation assay, RB-WT; format: cell-based; settings: 72 hours, cell count
Method: as §1

CDK2/Cyclin E1 = CDK2/Cyclin E1 (Homo sapiens, UniProt P24941); assay: ADP-Glo Luminescent Kinase Assay (CDK2/E1-37C); format: biochemical; settings: 0.18 nM CDK2/Cyclin E1, 100 μM ATP, Histone H1, 37° C.; read-out: ADPGLO (CDK2/E1-37C): IC50
Method: Inhibition of CDK2/Cyclin E1 activity by the presence of small molecules was evaluated using ADP-Glo Luminescent Kinase Assay (Promega). Activated CDK2/Cyclin E1 was incubated with its substrate Histone H1 (SignalChem H10-54N) in the kinase reaction buffer (100 μM ATP, 50 mM HEPES pH 7.5, 10 mM MgCl2, 1 mM EDTA, 2 mM DTT, 0.01% Brij35, 0.5 mg/mL BSA). Luminescence was recorded with an Envision plate reader (PerkinElmer).
Dose titrations of inhibitors in 100% DMSO were combined with 0.36 nM CDK2/Cyclin E1 in reaction buffer. The mixtures were incubated for 60 minutes at 37° C. before the addition of ATP and Histone H1 substrate to initiate the kinase reaction. The final conditions were 0.18 nM CDK2/Cyclin E1, 100 μM ATP, and […] Histone H1. The reactions were incubated at 37° C. for 90 minutes before being stopped with the addition of ADP-Glo reagent. This mixture was incubated at room temperature for 60 minutes before Kinase Detection Solution is added to generate luminescence. The stopped reactions were analyzed on an Envision plate reader. The conversion ratios were normalized to yield % activity, plotted against compound concentration, and fit to a four-parameter equation to determine the IC50 for each compound.

SMILES	IC50 (Kuramochi cells RB-KO)	IC50 (Kuramochi cells RB-WT)	IC50 (CDK2/Cyclin E1)
CC(C(=O)N1CC2(CN(C(=O)c3cnn(Cc4ccc(F)cc4)c3)C[C@H]2COCc2cccc(C3CCC(C(F)(F)F)CC3)c2C(=O)O)C1)C(F)(F)F (stereo partly drawn) [Compound I-97, 2-((((8S)-6-(1-(4-fluorobenzyl)-1H-pyrazole-4-carbonyl)-2-(3,3,3-trifluoro-2-methylpropanoyl)-2,6-diazaspiro[3.4]octan-8-yl)methoxy)methyl)-6-(4-(trifluoromethyl)cyclohexyl)benzoic acid]	> 10 µM	5 to 10 µM	≤ 0.5 µM
O=C(O)c1c(COC[C@@H]2CN(C(=O)c3cnn(Cc4ccc(F)cc4)c3)CC23CN(C(=O)CC2(C(F)(F)F)CC2)C3)cccc1C1CCC(C(F)(F)F)CC1 (stereo partly drawn) [Compound I-98]	> 10 µM	> 10 µM	0.5 to 5 µM
O=C(O)c1c(COC[C@@H]2CN(C(=O)c3cnn(Cc4ccc(F)cc4)c3)CC23CN(C(=O)C2COC2)C3)cccc1C1CCC(C(F)(F)F)CC1 (stereo partly drawn) [Compound I-99]	> 10 µM	> 10 µM	> 10 µM
CC(C(=O)N1CC2(CN(C(=O)c3cnn(Cc4ccc(F)cc4)c3)C[C@H]2COCc2cccc(C3CCC(C(F)(F)F)CC3)c2C(=O)O)C1)(C(F)(F)F)C(F)(F)F (stereo partly drawn) [Compound I-100, (S)-2-(((6-(1-(4-fluorobenzyl)-1H-pyrazole-4-carbonyl)-2-(3,3,3-trifluoro-2-methyl-2-(trifluoromethyl)propanoyl)-2,6-diazaspiro[3.4]octan-8-yl)methoxy)methyl)-6-(4-(trifluoromethyl)cyclohexyl)benzoic acid]	> 10 µM	> 10 µM	≤ 0.5 µM
CC(C)(C(=O)N1CC2(CN(C(=O)c3cnn(Cc4ccc(F)cc4)c3)C[C@H]2COCc2cccc(C3CCC(F)(F)CC3)c2C(=O)O)C1)C(F)(F)F [Compound I-101, (S)-2-(4,4-difluorocyclohexyl)-6-(((6-(1-(4-fluorobenzyl)-1H-pyrazole-4-carbonyl)-2-(3,3,3-trifluoro-2,2-dimethylpropanoyl)-2,6-diazaspiro[3.4]octan-8-yl)methoxy)methyl)benzoic acid]	> 10 µM	0.5 to 5 µM	≤ 0.5 µM
O=C(O)Cc1c(COC[C@@H]2CN(C(=O)c3cnn(Cc4ccc(F)cc4)c3)CC23CN(C(=O)C2(C(F)(F)F)CC2)C3)cccc1C1CCC(C(F)(F)F)CC1 (stereo partly drawn) [Compound I-102, (S)-2-(2-(((6-(1-(4-fluorobenzyl)-1H-pyrazole-4-carbonyl)-2-(1-(trifluoromethyl)cyclopropane-1-carbonyl)-2,6-diazaspiro[3.4]octan-8-yl)methoxy)methyl)-6-(4-(trifluoromethyl)cyclohexyl)phenyl)acetic acid]	> 10 µM	0.5 to 5 µM	≤ 0.5 µM
CC(C)(Oc1c(COC[C@@H]2CN(C(=O)c3cnn(Cc4ccc(F)cc4)c3)CC23CN(C(=O)C2(C(F)(F)F)CC2)C3)cccc1C1CCC(C(F)(F)F)CC1)C(=O)O (stereo partly drawn) [Compound I-108]	> 10 µM	> 10 µM	0.5 to 5 µM
O=C(O)COc1c(COC[C@@H]2CN(C(=O)c3cnn(Cc4ccc(F)cc4)c3)CC23CN(C(=O)C2(C(F)(F)F)CC2)C3)cccc1C1CCC(C(F)(F)F)CC1 (stereo partly drawn) [Compound I-109, (S)-2-(2-(((6-(1-(4-fluorobenzyl)-1H-pyrazole-4-carbonyl)-2-(1-(trifluoromethyl)cyclopropane-1-carbonyl)-2,6-diazaspiro[3.4]octan-8-yl)methoxy)methyl)-6-(4-(trifluoromethyl)cyclohexyl)phenoxy)acetic acid]	> 10 µM	> 10 µM	≤ 0.5 µM
O=C(O)c1ccc(C2CCC(C(F)(F)F)CC2)cc1COC[C@@H]1CN(C(=O)c2cnn(Cc3ccc(F)cc3)c2)CC12CN(C(=O)C1(C(F)(F)F)CC1)C2 (stereo partly drawn) [Compound I-111]	> 10 µM	> 10 µM	0.5 to 5 µM
O=C(O)c1ccccc1Cn1cc(C(=O)N2CC(COCc3cccc(C4CCC(C(F)(F)F)CC4)c3C(F)(F)F)C3(C2)CN(C(=O)C2(C(F)(F)F)CC2)C3)cn1 (stereo not drawn) [Compound I-114]	> 10 µM	> 10 µM	≤ 0.5 µM
CC1(C)C[C@@H]1C(=O)N1CC2(CN(C(=O)c3cnn(Cc4ccc(F)cc4C(F)(F)F)c3)C[C@H]2COCc2cccc(C3CCC(F)(F)CC3)c2C(=O)O)C1 [Compound I-118, 2-(4,4-difluorocyclohexyl)-6-(((2-((S)-2,2-dimethylcyclopropane-1-carbonyl)-6-(1-(4-fluoro-2-(trifluoromethyl)benzyl)-1H-pyrazole-4-carbonyl)-2,6-diazaspiro[3.4]octan-8-yl)methoxy)methyl)benzoic acid]	> 10 µM	5 to 10 µM	≤ 0.5 µM
CC1(C)C[C@@H]1C(=O)N1CC2(CN(C(=O)c3cnn(Cc4ccc(F)cc4)c3)C[C@H]2COCc2c(F)ccc(C3CCC(F)(F)CC3)c2C(=O)O)C1 [Compound I-119, 6-(4,4-difluorocyclohexyl)-2-(((2-((S)-2,2-dimethylcyclopropane-1-carbonyl)-6-(1-(4-fluorobenzyl)-1H-pyrazole-4-carbonyl)-2,6-diazaspiro[3.4]octan-8-yl)methoxy)methyl)-3-fluorobenzoic acid]	> 10 µM	0.5 to 5 µM	≤ 0.5 µM
CC(C)(C(=O)N1CC2(CN(C(=O)c3cnn(Cc4ccc(F)cc4C(F)(F)F)c3)C[C@H]2COCc2cccc(C3CCC(F)(F)CC3)c2C(=O)O)C1)C(F)(F)F [Compound I-127, (S)-2-(4,4-difluorocyclohexyl)-6-(((6-(1-(4-fluoro-2-(trifluoromethyl)benzyl)-1H-pyrazole-4-carbonyl)-2-(3,3,3-trifluoro-2,2-dimethylpropanoyl)-2,6-diazaspiro[3.4]octan-8-yl)methoxy)methyl)benzoic acid]	> 10 µM	0.5 to 5 µM	≤ 0.5 µM
CC1(C)C[C@@H]1C(=O)N1CC2(CN(C(=O)c3cnn(Cc4ccc(F)cc4)c3)CC2COc2cccc(C3CCC(F)(F)CC3)c2C(=O)O)C1 (stereo partly drawn) [Compound I-128, 2-(4,4-difluorocyclohexyl)-6-((2-((S)-2,2-dimethylcyclopropane-1-carbonyl)-6-(1-(4-fluorobenzyl)-1H-pyrazole-4-carbonyl)-2,6-diazaspiro[3.4]octan-8-yl)methoxy)benzoic acid]	> 10 µM	> 10 µM	≤ 0.5 µM
CC1(C)C[C@@H]1C(=O)N1CC2(CN(C(=O)c3cnn(Cc4ccc(F)cc4)c3)CC2COc2cccc(CC3CCC(F)(F)CC3)c2C(=O)O)C1 (stereo partly drawn) [Compound I-129]	> 10 µM	> 10 µM	≤ 0.5 µM
CC1(C)C[C@@H]1C(=O)N1CC2(CN(C(=O)c3cnn(Cc4ccc(F)cc4)c3)CC2COc2cccc(OC3CCC(F)(F)CC3)c2C(=O)O)C1 (stereo partly drawn) [Compound I-130, 2-((4,4-difluorocyclohexyl)oxy)-6-((2-((S)-2,2-dimethylcyclopropane-1-carbonyl)-6-(1-(4-fluorobenzyl)-1H-pyrazole-4-carbonyl)-2,6-diazaspiro[3.4]octan-8-yl)methoxy)benzoic acid]	> 10 µM	> 10 µM	≤ 0.5 µM
